According to patent US20230014151A1, “COMBINATION ANTIVIRAL THERAPY FOR MEASLES” (The Trustees of Columbia University in the City of New York, priority 2019, published 2023):
Read-outs that look alike come from different tables or passages of the source. Numbered stars: 1 amine (or outer) side, 2 acyl side, 3 side chain; on linkers, the order of the positions; unused ones are H or OH. Bridge positions count the residues as written; N and C are the ends. Square brackets hold non-standard residues; d marks the D form. Ends that are not written are not given here. Peptide text beside a SMILES is read from it. I, II: the chains in the order shown. * marks the point of attachment. X1 = CC(C)CCC[C@@H](C)[C@H]1CC[C@H]2[C@@H]3CC=C4C[C@@H](OCCN(CCNC(=O)CCOCCOCCOCCOCCNC(=O)CCCN5C(=O)CC([*:1])C5=O)CCNC(=O)CCOCCOCCOCCOCCNC(=O)CCCN5C(=O)CC([*:2])C5=O)CC[C@]4(C)[C@H]3CC[C@]12C; Cbz = O=C(OCc1ccccc1)*

How the values were obtained:
[1] = molecular target: measles virus (MeV) fusion protein F, wild type, expressed on cells (measles virus) (UniProt Q786F3); assay: cell-based or functional assay
[2] = molecular target: measles virus (MeV) fusion protein F, wild type, expressed on cells (measles virus) (UniProt Q786F3); assay: cell-based or functional assay; remark: listed apart in the source
[3] = tested on: vesicular stomatitis virus (VSV); conditions: 16 h
[4] = molecular target: viral glycoproteins (H and F); Nectin-4 (Measles virus, UniProt Q786F3); assay: beta-galactosidase complementation-based fusion assay, Nectin-4 target cells
[5] = molecular target: viral glycoproteins (H and F); CD150; assay: beta-galactosidase complementation-based fusion assay, CD150 target cells; conditions: for IC90: read-out: CD150 IC90
[6] = IC50, Table 2 (salient peptides), Nectin-4 target cells
[7] = Nectin4 IC50, Table 3 (extended version)

Molecule	IC50, beta-galactosidase complementation-based fusion assay, Nectin-4 target cells [1]	IC90, beta-galactosidase complementation-based fusion assay, Nectin-4 target cells [1]	IC90 ([4]; read-out: Nectin4 IC90)	IC90 [5]	also measured
FIP-HRC450-485-peg4-chol (peptide)	214 nM	614 nM			
HRC450-485-peg4-chol (peptide)	123 nM	856 nM			
HRC450-485 (peptide)	> 10000 nM	> 10000 nM			
FIP-HRC450-485-chol (peptide)	214 nM	614 nM			IC50, beta-galactosidase complementation-based fusion assay, Nectin-4 target cells [2]: 251 nM; IC90, beta-galactosidase complementation-based fusion assay, Nectin-4 target cells [2]: 446 nM
I: Cbz-[dF]FGGSGSGVALDPIDISIVLNKIKSDLEESKEWIRRSNKILDSIGSGSGC / II: Cbz-[dF]FGGSGSGVALDPIDISIVLNKIKSDLEESKEWIRRSNKILDSIGSGSGC (linker I:50-II:50 via X1; N-terminus assumed) [FIP VI KI]					IC50 [3]: > 5000 nM
CC[C@H](C)[C@H](NC(=O)[C@H](C)NC(=O)[C@H](CC(N)=O)NC(=O)CNC(=O)[C@H](CC(C)C)NC(=O)[C@H](CC(N)=O)NC(=O)[C@@H](NC(=O)CNC(=O)[C@@H](NC(=O)[C@H](CC(=O)O)NC(=O)[C@H](CC(C)C)NC(=O)[C@H](CCCNC(=N)N)NC(=O)[C@H](CCC(=O)O)NC(=O)[C@H](CC(C)C)NC(=O)[C@H](CO)NC(=O)[C@@H](NC(=O)[C@@H]1CCCN1C(=O)[C@@H]1CCCN1C(=O)CNC(=O)[C@H](CO)NC(=O)CNC(=O)[C@H](CO)NC(=O)CNC(=O)CNC(=O)[C@H](Cc1ccccc1)NC(=O)[C@@H](Cc1ccccc1)NC(=O)OCc1ccccc1)[C@@H](C)CC)C(C)C)[C@@H](C)O)C(=O)N[C@@H](C)C(=O)N[C@@H](CCCCN)C(=O)N[C@@H](CC(C)C)C(=O)N[C@@H](CCC(=O)O)C(=O)N[C@@H](CC(=O)O)C(=O)N[C@@H](C)C(=O)N[C@@H](CCCCN)C(=O)N[C@@H](CCC(=O)O)C(=O)N[C@@H](CC(C)C)C(=O)N[C@@H](CC(C)C)C(=O)N[C@@H](CCC(=O)O)C(=O)N[C@@H](CO)C(=O)N[C@@H](CO)C(=O)N[C@@H](CC(=O)O)C(=O)N[C@@H](CCC(N)=O)C(=O)N[C@H](C(=O)N[C@@H](CC(C)C)C(=O)N[C@@H](CCCNC(=N)N)C(=O)N[C@@H](CSC1CC(=O)N(CCCC(=O)NCCOCCOCCOCCOCCC(=O)NCCN(CCNC(=O)CCOCCOCCOCCOCCNC(=O)CCCN2C(=O)CC(SC[C@H](NC(=O)[C@H](CCCNC(=N)N)NC(=O)[C@H](CC(C)C)NC(=O)[C@@H](NC(=O)[C@H](CCC(N)=O)NC(=O)[C@H](CC(=O)O)NC(=O)[C@H](CO)NC(=O)[C@H](CO)NC(=O)[C@H](CCC(=O)O)NC(=O)[C@H](CC(C)C)NC(=O)[C@H](CC(C)C)NC(=O)[C@H](CCC(=O)O)NC(=O)[C@H](CCCCN)NC(=O)[C@H](C)NC(=O)[C@H](CC(=O)O)NC(=O)[C@H](CCC(=O)O)NC(=O)[C@H](CC(C)C)NC(=O)[C@H](CCCCN)NC(=O)[C@H](C)NC(=O)[C@@H](NC(=O)[C@H](C)NC(=O)[C@H](CC(N)=O)NC(=O)CNC(=O)[C@H](CC(C)C)NC(=O)[C@H](CC(N)=O)NC(=O)[C@@H](NC(=O)CNC(=O)[C@@H](NC(=O)[C@H](CC(=O)O)NC(=O)[C@H](CC(C)C)NC(=O)[C@H](CCCNC(=N)N)NC(=O)[C@H](CCC(=O)O)NC(=O)[C@H](CC(C)C)NC(=O)[C@H](CO)NC(=O)[C@@H](NC(=O)[C@@H]3CCCN3C(=O)[C@@H]3CCCN3C(=O)CNC(=O)[C@H](CO)NC(=O)CNC(=O)[C@H](CO)NC(=O)CNC(=O)CNC(=O)[C@H](Cc3ccccc3)NC(=O)[C@@H](Cc3ccccc3)NC(=O)OCc3ccccc3)[C@@H](C)CC)C(C)C)[C@@H](C)O)[C@@H](C)CC)[C@@H](C)CC)C(=O)O)C2=O)CCO[C@H]2CC[C@@]3(C)C(=CC[C@H]4[C@@H]5CC[C@H]([C@H](C)CCCC(C)C)[C@@]5(C)CC[C@@H]43)C2)C1=O)C(=O)O)[C@@H](C)CC (stereo partly shown)			220 ± 189 nM	287 ± 24.5 nM	IC50 [4]: 60.2 ± 65.5 nM; IC50 [5]: 58.9 ± 69.8 nM
CC(C)CCC[C@@H](C)[C@H]1CC[C@H]2[C@@H]3CC=C4C[C@@H](OCCN(CCNC(=O)CCOCCOCCOCCOCCNC(=O)CCCN5C(=O)CC(SC[C@H](NC(=O)CNC(=O)[C@H](CO)NC(=O)CNC(=O)[C@H](CO)NC(=O)CNC(=O)CNC(=O)[C@H](Cc6ccccc6)NC(=O)[C@@H](Cc6ccccc6)NC(=O)OCc6ccccc6)C(=O)O)C5=O)CCNC(=O)CCOCCOCCOCCOCCNC(=O)CCCN5C(=O)CC(SC[C@H](NC(=O)CNC(=O)[C@H](CO)NC(=O)CNC(=O)[C@H](CO)NC(=O)CNC(=O)CNC(=O)[C@H](Cc6ccccc6)NC(=O)[C@@H](Cc6ccccc6)NC(=O)OCc6ccccc6)C(=O)O)C5=O)CC[C@]4(C)[C@H]3CC[C@]12C (stereo partly shown) [[FIP-peg4]2-chol] (I: Cbz-[dF]FGGSGSGC-OH / II: Cbz-[dF]FGGSGSGC-OH; linker I:9-II:9 via X1)			1845 ± 16 nM	927 ± 359 nM	IC90 [4]: 1845 ± 16 nM; IC50 [4, 6]: 452 ± 196 nM; IC50 [5]: 510 ± 360 nM
FIP-chol (peptide)	4000 nM	7620 nM			IC50, beta-galactosidase complementation-based fusion assay, Nectin-4 target cells [2]: > 10000 nM; IC90, beta-galactosidase complementation-based fusion assay, Nectin-4 target cells [2]: > 10000 nM
O=C(CCN1C(=O)CC(SC[C@H](NC(=O)CNC(=O)[C@H](Cc2ccccc2)NC(=O)[C@@H](Cc2ccccc2)NC(=O)OCc2ccccc2)C(=O)O)C1=O)NCCOCCOCCOCCOCCOCCOCCOCCOCCOCCOCCOCCNC(=O)CCN1C(=O)CC(SC[C@H](NC(=O)CNC(=O)[C@H](Cc2ccccc2)NC(=O)[C@@H](Cc2ccccc2)NC(=O)OCc2ccccc2)C(=O)O)C1=O (stereo partly shown) [[FIP]2-peg11 (no GSGSG)]			> 1000 nM	> 1000 nM	IC90 [4]: > 10000 nM; IC50 [4, 6]: > 10000 nM; IC50 [4, 7]: > 700 nM; IC50 [5]: > 600 nM
CC(C)CCC[C@@H](C)[C@H]1CC[C@H]2[C@@H]3CC=C4C[C@@H](OCCN(CCNC(=O)CCOCCOCCOCCOCCNC(=O)CCCN5C(=O)CC(SC[C@H](NC(=O)CNC(=O)[C@H](Cc6ccccc6)NC(=O)[C@@H](Cc6ccccc6)NC(=O)OCc6ccccc6)C(=O)O)C5=O)CCNC(=O)CCOCCOCCOCCOCCNC(=O)CCCN5C(=O)CC(SC[C@H](NC(=O)CNC(=O)[C@H](Cc6ccccc6)NC(=O)[C@@H](Cc6ccccc6)NC(=O)OCc6ccccc6)C(=O)O)C5=O)CC[C@]4(C)[C@H]3CC[C@]12C (stereo partly shown) [[FIP-peg4]2-chol (no GSGSG)]			> 1000 nM	> 1000 nM	IC50 [4, 7]: > 1000 nM; IC50 [5]: > 700 nM
FIP-HRC450-485 (peptide)	4240 nM				IC90, beta-galactosidase complementation-based fusion assay, Nectin-4 target cells [2]: > 10000 nM
FIP-peg4-chol (peptide)	4000 nM	7620 nM			
HRC450-485-chol (peptide)		> 7000 nM			IC50, beta-galactosidase complementation-based fusion assay, Nectin-4 target cells [2]: 103 nM; IC90, beta-galactosidase complementation-based fusion assay, Nectin-4 target cells [2]: > 1000 nM
CC(C)CCC[C@@H](C)[C@H]1CC[C@H]2[C@@H]3CC=C4C[C@@H](OC(=O)CCOCCOCCOCCOCCNC(=O)CSC[C@H](NC(=O)CNC(=O)[C@H](Cc5ccccc5)NC(=O)[C@@H](Cc5ccccc5)NC(=O)OCc5ccccc5)C(=O)O)CC[C@]4(C)[C@H]3CC[C@]12C [FIP-peg4-chol (no GSGSG)]			> 1000 nM	> 900 nM	
